# Measurements taken from patent publication US10183949B2, “Pyrimidinone derivative having autotaxin-inhibitory activity” (The University of Tokyo, priority 2014, dated 2019).
# Target: T1, Human autotaxin enzyme (Homo sapiens, UniProt Q13822)
# T1 construct: purchased R&D System
# Assay: Evaluation of autotaxin inhibitor, 18:0 Lyso PC / choline assay (Test Example 2)
# Assay type: biochemical
# Conditions: autotaxin inhibition, IC50 class; read-out: Inhibitor activity
# Outline: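 Inhibition derived from concentration-dependent curves, scaled between no-compound (0%) and no-enzyme (100%) wells. Choline generated from 18:0 Lyso PC (200 μM stock) by human enzyme over 2 h at room temperature (Tris-HCl pH 7.5, NaCl, MgCl2, Triton X-100) read as resorufin fluorescence, 531/598 nm, after choline oxidase-peroxidase coupling.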
row,SMILES,IC50
1,CC(=O)Nc1cc(Cl)ccc1-c1cc(=O)n(CC(=O)OC(C)(C)C)cn1 [Compound I-0244],10 to 100 nM
2,CC(=O)Nc1cc(Cl)ccc1-c1cc(=O)n(CC(=O)O)cn1 [Compound I-0246],≥ 1000 nM
3,CCc1nc(-c2ccc(Cl)cc2NC(C)=O)cc(=O)n1CC(=O)NC1(C#N)CC1 [Compound I-0256],10 to 100 nM

# Same assay, conditions: human autotaxin enzyme, 18:0 Lyso PC substrate, choline assay, room temperature 2 hours; read-out: Inhibitor activity (IC50)
row,SMILES,IC50
1,CN(C)C(=O)CNC(=O)c1cccc(Cn2c(CCCC(F)(F)F)nc(-c3ccc(Cl)cc3)cc2=O)c1 [Compound I-0183],10 to 100 nM
2,O=C(NCc1cc(=O)[nH]o1)c1cccc(Cn2c(CCCC(F)(F)F)nc(-c3ccc(Cl)cc3)cc2=O)c1 [Compound I-0170],10 to 100 nM
3,CN(C)C(=O)NC1CCN(C(=O)Cn2c(CCCC(F)(F)F)nc(-c3ccc(C(F)(F)F)cc3)cc2=O)CC1 [Compound I-0364],100 to 1000 nM
4,Cc1noc(C2(NC(=O)Cn3c(C)nc(-c4ccc(Cl)cc4NC(=O)C4CC4)cc3=O)CC2)n1 [Compound I-0475],10 to 100 nM
5,CCCCCc1nc(-c2ccc(Cl)cc2)cc(=O)n1CC(=O)N[C@@H]1CN2CCC1CC2 [Compound I-0078],≥ 1000 nM
6,Cc1nc(-c2ccc(Cl)cc2NC(=O)C2CC2)cc(=O)n1CC(=O)NCC1(CO)COC1 [Compound I-0300],10 to 100 nM
7,COC(=O)Nc1cc(Cl)ccc1-c1cc(=O)n(CC(=O)N2CCC(C#N)CC2)c(C)n1 [Compound I-0433],10 to 100 nM
8,CCCCCc1nc(-c2ccc(Cl)cc2)cc(=O)n1CC(=O)NCc1ccccc1 [Compound I-0034],100 to 1000 nM
9,CSc1nc(-c2ccc(Cl)cc2NC(=O)C2CC2)cc(=O)n1CC(=O)NC1(C#N)CC1 [Compound I-0295],10 to 100 nM
10,CCCCCc1nc(-c2ccc(Cl)cc2)cc(=O)n1CC(=O)NCCC#N [Compound I-0080],10 to 100 nM
11,Cc1nc(-c2ccc(Cl)cc2NC(=O)C2CC2)cc(=O)n1CC(=O)N1CCC(CC(=O)OC(C)(C)C)CC1 [Compound I-0496],10 to 100 nM
12,CC(=O)Nc1cc(Cl)ccc1-c1cc(=O)n(Cc2cccc(C(=O)O)c2)c(C)n1 [Compound I-0267],< 10 nM
13,CC(C)(O)CNC(=O)Cn1c(COCC(F)(F)F)nc(-c2ccc(Cl)cc2)cc1=O [Compound I-0215],10 to 100 nM
14,COc1ccc(Cn2c(-c3ccc(Cl)cc3)cc(=O)n(CC(=O)NC(Cc3ccccc3)C(=O)O)c2=O)cc1 (centres unmarked) [Compound I-0107],≥ 1000 nM
15,CCCCCc1nc(-c2ccc(Cl)cc2)cc(=O)n1CC(=O)N[C@@H]1CCN(C(C)=O)C1 [Compound I-0097],100 to 1000 nM
16,Cc1nc(-c2ccc(Cl)cc2NC(=O)C2CC2)cc(=O)n1CC(=O)N1CC(C(C)(C)O)C1 [Compound I-0454],100 to 1000 nM
17,CCCCCc1nc(-c2ccc(Cl)cc2)cc(=O)n1CC(=O)N1CCN(CC(=O)O)CC1 [Compound I-0048],< 10 nM
18,CC(C)(C)N1CCN(c2cc(=O)n(CC(=O)NC3(C#N)CC3)c(CCCC(F)(F)F)n2)CC1 [Compound I-0239],≥ 1000 nM
19,CCCCCc1nc(-c2ccc(Cl)cc2)cc(=O)n1CC(=O)NC(CC)C(=O)O (centres unmarked) [Compound I-0051],< 10 nM
20,O=C1CCC(CNC(=O)c2cccc(Cn3c(CCCC(F)(F)F)nc(-c4ccc(Cl)cc4)cc3=O)c2)CN1 (centres unmarked) [Compound I-0196],10 to 100 nM
21,N#CCCNC(=O)Cn1c(CCCC(F)(F)F)nc(-c2ccc(Cl)cc2)cc1=O [Compound I-0137],10 to 100 nM
22,Cc1nc(-c2ccc(Cl)cc2NC(=O)C(C)(C)C)cc(=O)n1CCO [Compound I-0371],≥ 1000 nM
23,COC(=O)Nc1cc(Cl)ccc1-c1cc(=O)n(CC(=O)NCC2CCC(=O)N2)c(C)n1 (centres unmarked) [Compound I-0437],10 to 100 nM
24,CCCCCc1nc(-c2ccc(Cl)cc2)cc(=O)n1CC(=O)NC1(C(=O)O)CCCC1 [Compound I-0057],10 to 100 nM
25,COC(=O)Nc1cc(Cl)ccc1-c1cc(=O)n(CC(=O)NC2(C)CC2)c(C)n1 [Compound I-0392],10 to 100 nM

row,SMILES,IC50
1,CCCCCNc1nc(-c2ccc(C(F)(F)F)cc2)cc(=O)n1Cc1cccc(C(=O)OC(C)(C)C)c1 [Compound I-0011],≥ 1000 nM
2,O=C(Cn1cnc(-c2ccc(Cl)cc2)cc1=O)NCCCCCCNC(=O)c1ccc2nn[nH]c2c1 [Compound I-0483],100 to 1000 nM
3,Cc1nc(-c2ccc(Cl)cc2NC(=O)C2CC2)cc(=O)n1CC(=O)NCCNS(C)(=O)=O [Compound I-0473],10 to 100 nM
4,CNC(=O)C1CCN(C(=O)Cn2c(CCCC(F)(F)F)nc(-c3ccc(C(F)(F)F)cc3)cc2=O)CC1 [Compound I-0350],10 to 100 nM
5,COC(=O)Nc1cc(C#N)ccc1-c1cc(=O)n(CC(=O)NCC(C)(C)O)c(C)n1 [Compound I-0399],10 to 100 nM
6,CCS(=O)(=O)N1CCN(C(=O)c2cccc(Cn3cnc(-c4ccc(Cl)cc4NC(=O)C(C)(C)C)cc3=O)c2)CC1 [Compound I-0501],10 to 100 nM
7,CCCCCc1nc(-c2ccc(Cl)cc2)cc(=O)n1CC(=O)NC(Cc1ccccc1)C(=O)O (centres unmarked) [Compound I-0024],< 10 nM
8,NC(=O)C1CCN(C(=O)Cn2c(CCCC(F)(F)F)nc(-c3ccc(C(F)(F)F)cc3)cc2=O)CC1 [Compound I-0342],10 to 100 nM
9,CC(C)(O)CN1CCN(C(=O)Cn2c(CCCC(F)(F)F)nc(-c3ccc(C(F)(F)F)cc3)cc2=O)CC1 [Compound I-0357],100 to 1000 nM
10,CCCCCc1nc(-c2ccc(Cl)cc2)cc(=O)n1CC(=O)N[C@H]1C[C@H](C(=O)O)C1 [Compound I-0071],< 10 nM
11,CCCCCc1nc(-c2ccc(Cl)cc2)cc(=O)n1CC(=O)NCC(=O)O [Compound I-0065],10 to 100 nM
12,O=C(Cn1cnc(-c2ccc(Cl)cc2)cc1=O)NCCNC(=O)c1ccc2nn[nH]c2c1 [Compound I-0443],≥ 1000 nM
13,CCCCCc1nc(-c2ccc(Cl)cc2)cc(=O)n1CC(=O)NCCc1ccccc1 [Compound I-0103],10 to 100 nM
14,O=C(Cn1cnc(-c2ccc(Cl)cc2)cc1=O)NCCCNC(=O)c1ccc2[nH]nnc2c1 [Compound I-0460],≥ 1000 nM
15,Cc1nc(C2=CCC(C(F)(F)F)CC2)cc(=O)n1CC(=O)NC1(C#N)CC1 (centres unmarked) [Compound I-0261],100 to 1000 nM
16,CCCCCc1nc(-c2ccc(Cl)cc2)cc(=O)n1CC(=O)Nc1cc(C2CC2)no1 [Compound I-0099],≥ 1000 nM
17,COC(=O)Nc1cc(Cl)ccc1-c1cc(=O)n(CC(=O)N2CC(F)C2)c(C)n1 [Compound I-0395],100 to 1000 nM
18,CCNC(=O)N1CCC(NC(=O)Cn2cnc(-c3ccc(Cl)cc3NC(=O)C(C)(C)C)cc2=O)CC1 [Compound I-0487],100 to 1000 nM
19,CCCCCc1nc(-c2ccc(Cl)cc2)cc(=O)n1CC(=O)NCC(=O)NCC(=O)O [Compound I-0055],< 10 nM
20,COC(=O)Nc1cc(C#N)ccc1-c1cc(=O)n(CC(=O)N2CCC(C(N)=O)CC2)c(C)n1 [Compound I-0445],< 10 nM
21,N#CCc1cc(OC(F)(F)F)ccc1-c1cc(=O)n(CC(=O)NC2(C#N)CC2)c(CCCC(F)(F)F)n1 [Compound I-0220],10 to 100 nM
22,C[C@@H]1COC[C@H](C)N1C(=O)c1cccc(Cn2c(CCCC(F)(F)F)nc(-c3ccc(Cl)cc3)cc2=O)c1 [Compound I-0199],10 to 100 nM
23,O=C(Cn1c(CCCC(F)(F)F)nc(-c2ccc(Cl)cc2)cc1=O)NCCOCCOCCO [Compound I-0140],100 to 1000 nM
24,O=C(O)c1cccc(Cn2c(CCCC(F)(F)F)nc(-c3ccc(Cl)cc3)cc2=O)c1 [Compound I-0112],10 to 100 nM
25,CCCCCc1nc(-c2ccc(Cl)cc2)cc(=O)n1CC(=O)N1CCC(c2ccccc2C(=O)O)CC1 [Compound I-0046],10 to 100 nM
